The text below walks through data of US20230095695A1, “RNAS FOR COMPLEMENT INHIBITION” (Apellis Pharmaceuticals, Inc., priority 2020, published 2023).

In data set [1] the test system is C3 protein. As to the kind of experiment: Serum C3 protein (ELISA) in non-human primates after single SC dose. The class given is in vivo, cynomolgus monkeys. The settings on record: for reduction of serum C3 protein vs baseline: by day 29. The protocol: (§1) Naive male cynomolgus monkeys (n=3 in each group) were subcutaneously (SC) administered a single dose of either 3 mg/kg, 10 mg/kg, or 30 mg/kg siRNA 58, or vehicle (phosphate buffered saline) on day 1.
(§2) Serum samples were scheduled to be collected on days −5, −1, 3, 8, 15, 22, 29, 40, 57, 67, 82, 97, 112, 127, 142, 157, 172 and 184 (where negative values correspond to days before injection with siRNA 58 or vehicle). The level of C3 protein in serum was measured using an ELISA assay. Additionally, serum samples were also analyzed for alternative complement pathway activity (AH50). Values at day −1 value were used as the baseline.
(ELISA stands for enzyme-linked immunosorbent assay.)

In data set [2] the test system is C3 mRNA. The experiment in a line: Liver biopsy C3 mRNA (quantitative PCR) in non-human primates after single SC dose. It counts as in vivo, cynomolgus monkeys. The settings on record: for reduction of liver C3 mRNA vs vehicle control: by day 15. Here is the method:
as §1
Liver needle biopsies were performed on days 15, 46 and 79. The level of C3 mRNA in the samples was measured using a quantitative PCR assay. C3 mRNA level was normalized to the level of ActB mRNA in these experiments.

The subject of data set [3] is alternative complement pathway. As to the kind of experiment: Serum alternative complement pathway activity (AH50) in non-human primates. The class given is in vivo, cynomolgus monkeys. Here is the method:
as §1, §2

For a further data set, the system named is complement activation. As to conditions: relative to compstatin amidated at the C-terminus; based on published data; cited from earlier work.
Data set [4] deals with C3 mRNA. As to the kind of experiment: Liver C3 mRNA (RT-qPCR) in rats. It counts as in vivo, Sprague-Dawley rats. The settings on record: for mean C3 expression in liver, % of gene expression in the vehicle treated arm: 30 mg/kg. Here is the method: (§3) Dosing: Animals from groups 1-3 and 8 were dosed with a single subcutaneous injection of PBS vehicle or 3, 10 or 30 mg/kg siRNA 59, formulated at a concentration of 0.6, 2 and 6 mg/ml in PBS, respectively, in a dosing volume of 5 ml. Animals from groups 4-7 were dosed with 3× daily subcutaneous injection of […] siRNA 59, formulated at a concentration of 0.2, 0.6 and 2 mg/ml in PBS, respectively, in a dosing volume of 5 ml.
(§4) Sampling: For PD analyses, plasma and serum samples were collected at baseline and days 3, 8, 15, 22 and 29 post-dose. Plasma samples were collected at 15 minutes and 1, 4, 8, 24, 48 and 72 hours post-dose. Liver samples were collected at necropsy on days 3 and 30 post-dose.
PD tissue samples were analyzed for C3 mRNA levels using a semi-validated RT-qPCR method at EpigenDx (MA, USA).
A general note: Real-time PCR tracks product formation cycle by cycle.

The next data set relates to alternative pathway. The experiment in a line: Serum alternative pathway complement activation (AP Wieslab assay, C5b-9) in rats. The class given is in vivo, Sprague-Dawley rats. Here is the method: as §3, §4
Serum PD samples were analyzed for alternative pathway (AP) complement activation at Confluence Discovery Technologies (MO, USA) using the AP Wieslab assay (Eagle Biosciences, Cat #COMPL AP330).
Alternative pathway complement activity: Sera from each animal treated with single dose siRNA 59 and vehicle, as well as the multi-dose siRNA (−) control-treated animals, were used in the AP Wieslab assay, an ELISA-based assay that measures formation of C5b-9 following alternative pathway activation, to assess complement activation (FIG. 8). […] Data represents mean±SEM (n=3). Serum AP complement activity was highly variable across the control groups.

Data set [5] has as its system C3 protein. The experiment in a line: Plasma C3 protein (ELISA) in rats after SC administration. It counts as in vivo, Sprague-Dawley rats. The protocol:
as §3, §4
Bioanalytical Methods: Plasma PD samples were analyzed for concentrations of C3 protein at Confluence Discovery Technologies (MO, USA) using a double antibody sandwich ELISA kit according to the manufacturer's instructions (Eagle Biosciences; plasma dilution of 1:10,000).

Data set [6] in a line: Tolerability observations in rats. The class given is in vivo, Sprague-Dawley rats. The protocol:
as §3

Setting [7] is: single SC dose 3, 10 or 30 mg/kg.
Setting [8] is: SC 3, 10, 30 mg/kg, single or 3x daily.

Oligonucleotides are written 5' to 3', each unit as a sugar letter and its base; * is a phosphorothioate linkage, no mark a phosphodiester; rarer units and linkages stand in square brackets, end groups in braces. Plain capitals give the bases only. Non-standard residues stand in square brackets, D forms with d. {GalNAc-NHC6} = GalNAc ligand attached through an NHC6 linker; Trp(5-F) = N[C@@H](Cc1c[nH]c2ccc(F)cc12)C(=O)O; Trp(5-Me) = Cc1ccc2[nH]cc(C[C@H](N)C(=O)O)c2c1; Trp(6-F) = N[C@@H](Cc1c[nH]c2cc(F)ccc12)C(=O)O; Bpa = N[C@@H](Cc1ccc(C(=O)c2ccccc2)cc1)C(=O)O; 2Nal = N[C@@H](Cc1ccc2ccccc2c1)C(=O)O; Igl = N[C@H](C(=O)O)C1Cc2ccccc2C1; Dht = not defined here; m = 2'-O-methyl; f = 2'-fluoro

Consider “siRNA 58: siRNA 53 further modified; sense SEQ ID NO: 325 / antisense SEQ ID NO: 275; GalNAc conjugated via NHC6 linker at 5′ end of sense strand (sense {GalNAc-NHC6}-mC*mC*fAmAmCmUfAfCfAmUmGfAmAmCmCmUfA*mC*mA; antisense mU*fG*mUmAmGmGmUmUmCmAmUmGmUfAmGmUmUmGmG*mC*mU) [siRNA 53 further modified; GalNAc conjugated via NHC6 linker at 5′ end of sense strand]”, for which the “reduction of serum C3 protein vs baseline” value came to 77% with C3 protein [1] (single SC dose 3 mg/kg), 85% in the data set with C3 protein [1] (single SC dose 10 mg/kg) and 90% with C3 protein [1] (single SC dose 30 mg/kg). Moreover, the “duration of serum C3 protein reduction” value in the data set on C3 protein [1] (setting [7]) is “sustained out to day 67”. The “reduction of liver C3 mRNA vs vehicle control” value turned out to be 89% with C3 mRNA [2] (single SC dose 3 mg/kg), 97% in the data set on C3 mRNA [2] (single SC dose 10 mg/kg) and 99% with C3 mRNA [2] (single SC dose 30 mg/kg). The “duration of liver C3 mRNA reduction” value in the data set with C3 mRNA [2] (setting [7]) is “sustained at day 46”. Further, the “reduction of alternative complement pathway activity (AH50) vs baseline” value in data set [3] (single SC dose 3 mg/kg, by day 29) is recorded as 65%; in data set [3] (single SC dose 3 mg/kg, day 67) it was 68%; in data set [3] (single SC dose 10 mg/kg, by day 29) it was 82%; in data set [3] (single SC dose 10 mg/kg, day 67), 91%; in data set [3] (single SC dose 30 mg/kg, by day 29) it was 92%; in data set [3] (single SC dose 30 mg/kg, day 67) it was 98%.
For the substance “Ac-ICVWQDWGAHRCT-CONH2 (Ac-ICVWQDWGAHRCT-NH2; not fully specified (bridges); printed as Ac-ICVWQDWGAHRCT-CONH2; cysteine pairing not given here) [AC-V4W/H9A]”, the Activity over compstatin with complement activation is 45× more.
Turning to “Ac-ICV(Bpa)QDWGAHRCT-CONH2 (Ac-ICV[Bpa]QDWGAHRCT-NH2; not fully specified (bridges); printed as Ac-ICV(Bpa)QDWGAHRCT-CONH2; cysteine pairing not given here) [Ac-V4(Bpa)/H9A]”, the Activity over compstatin in the data set with complement activation is reported as 86× more.
Turning to “Ac-ICV(5fW)QDWGAHRCT-CONH2 (Ac-ICV[Trp(5-F)]QDWGAHRCT-NH2; not fully specified (bridges); printed as Ac-ICV(5fW)QDWGAHRCT-CONH2; cysteine pairing not given here) [Ac-V4(5fW)/H9A]”, the Activity over compstatin in the data set on complement activation is on record as 31× more.
Turning to “Ac-ICV(2-Igl)QDWGAHRCT-CONH2 (Ac-ICV[Igl]QDWGAHRCT-NH2; not fully specified (bridges); printed as Ac-ICV(2-Igl)QDWGAHRCT-CONH2; cysteine pairing not given here) [Ac-V42lgl/H9A]”, the Activity over compstatin in the data set on complement activation is 39× more.
“Ac-1CV(2-Igl)QQDWGAHRCT-COOH [Ac-V42lgl/H9A-OH]”: the Activity over compstatin in the data set with complement activation is 37× more.
For the substance “Ac-ICV(2-Nal)QDWGAHRCT-CONH2 (Ac-ICV[2Nal]QDWGAHRCT-NH2; not fully specified (bridges); printed as Ac-ICV(2-Nal)QDWGAHRCT-CONH2; cysteine pairing not given here) [Ac-V4(2-Nal)/H9A]”, the Activity over compstatin in the data set with complement activation is 99× more.
Take “siRNA 59: siRNA 33 further modified; sense SEQ ID NO: 326 / antisense SEQ ID NO: 260; GalNAc conjugated via NHC6 linker at 5′ end of sense strand (sense {GalNAc-NHC6}-mU*mC*fCmAmAmGfCfCfUmUmGfGmCmUmCmAfA*mU*mA; antisense mU*fA*mUmUmGmAmGmCmCmAmAmGmGfCmUmUmGmGmA*mA*mC) [siRNA 33 further modified; GalNAc conjugated via NHC6 linker at 5′ end of sense strand]”: the “mean C3 expression in liver, % of gene expression in the vehicle treated arm” value stood at 3% in the data set with C3 mRNA [4] (day 3) and 25% in the data set with C3 mRNA [4] (day 30). For the same substance, the “recovery of liver C3 expression” value in the data set on C3 mRNA [4] (all treatment animals, study termination at day 30) was “None of the treatment animals had fully recovered”. Besides, in the data set on C3 mRNA [4] (both terminal timepoints (day 3 and day 30)), the “reduction in C3 mRNA in liver across doses” value is given as “dose-dependent manner”. Also, the “level of liver C3 mRNA vs vehicle control” value with C3 mRNA [4] (single dose PK animal groups, 3 days following treatment) is “significantly reduced”. For the same substance, in the data set with alternative pathway (dose groups other than high-dose (3 and 10 mg/kg)), the “change in AP Wieslab activity” value is “No change”. The “mean reduction in alternative pathway activity” value with alternative pathway (high dose group (30 mg/kg single SC), day 8 to day 15 post-dose) was “approximately 90%”. The “recovery of plasma C3 protein to baseline levels” value in the data set on C3 protein [5] (3 mg/kg dose group, day 29) is on record as “Full recovery”; with C3 protein [5] (10 and 30 mg/kg dose groups, final blood collection on day 29) it was “did not appear to have fully recovered”. The “reduction in C3 plasma protein concentration” value with C3 protein [5] (10 mg/kg dose) was roughly 90%. Also, the “plasma C3 concentration, single dose treatment vs QDx3 equivalent dose groups” value in the data set with C3 protein [5] (3, 10, 30 mg/kg total dose) is on record as “comparable”. Also, the “change in plasma C3 concentration across the dose groups” value with C3 protein [5] (setting [8]) is “clear dose-dependent response”. The “time at which maximal C3 protein reduction in plasma was achieved” value with C3 protein [5] (all dose groups) is given as no more than 8 study day. Also, in data set [6] (setting [8]), the “tolerability of the doses used” value is “well-tolerated”. Besides, the “body weight following TA administration” value in data set [6] (all treatment groups) is reported as “no loss in body weight”. Also, in data set [6] (all treatment groups), the “signs of distress or behavioral changes” value was “No signs of distress or behavioral changes”.
For the substance “H-GICV(6fW)QD(6fW)GAHRCTN-COOH (H-GICV[Trp(6-F)]QD[Trp(6-F)]GAHRCTN-OH; not fully specified (bridges); cysteine pairing not given here) [+GA/4(6fW)/W7(6fW)H9A+N-OH]”, the Activity over compstatin in the data set on complement activation is on record as 126× more.
Turning to “Ac-ICV(Dht)QDWGAHRCT-COOH (Ac-ICV[Dht]QDWGAHRCT-OH; not fully specified (bridges); printed as Ac-ICV(Dht)QDWGAHRCT-COOH; cysteine pairing not given here; reading uncertain) [Ac-V4Dht/H9A-OH]”, the Activity over compstatin with complement activation was 5× more.
Turning to “Ac-ICV(5-methyl-W)QDWGAHRCT-CONH2 (Ac-ICV[Trp(5-Me)]QDWGAHRCT-NH2; not fully specified (bridges); printed as Ac-ICV(5-methyl-W)QDWGAHRCT-CONH2; cysteine pairing not given here) [Ac-V4(5-MeW)/H9A]”, in the data set with complement activation, the Activity over compstatin is recorded as 67× more.
For Ac-ICVVQDWGHHRCT-CONH2 [Ac-compstatin], the Activity over compstatin with complement activation is listed as 3× more.
As to “Ac-ICVWQDWGAHRCdT-COOH [AC-V4W/H9A/T13dT-OH]”, the Activity over compstatin in the data set with complement activation is 55× more.
As for Ac-ICVYQDWGAHRCT-CONH2 [AC-V4Y/H9A], in the data set on complement activation, the Activity over compstatin was 14× more.
